This is an account of results in patent US11530196B2, “Pyrimidine compound acting on EGFR and ERBB2” (CHINA RESOURCES PHARMACEUTICAL HOLDINGS COMPANY LIMITED, priority 2019, dated 2022).

The structures appear in SMILES notation.

The target of assay [1] is Ba/F3 EGFR-D770_N771insSVD (Homo sapiens, UniProt P00533, DUP768-770, cells depend on it). Description: Anti-proliferation against Ba/F3 exon 20 insertion mutant cells (SVD). In kind it is cell-based, mouse. Particulars: CTG, 72 hours, read-out: Mutant cells IC50 (anti-proliferation). From the text: RPMI1640 medium was purchased from Hyclone, FBS fetal bovine serum was purchased from GBICO, and trypsin-EDTA were both purchased from Giboco. DPBS was purchased from Corning, penicillin/streptomycin solution was purchased from Hyclone, and Cell-Titer Glo reagent was purchased from Promega (Cat. No. G7572). Ba/F3 EGFR-D770_N771insSVD, Ba/F3 EGFR-H773_V774insNPH, Ba/F3 EGFR-V769_D770insASV, BaF3 ERBB2 A775_G776 ins YVMA, the cell lines were constructed by Beijing Kang Yuan Bochuang Biotechnology Co., Ltd. Plate reading instrument: Envision (PerkinElmer).
Cells in logarithmic growth phase were harvested and cell counts were performed using a […]. Cell viability was detected by the Taipan Blue rejection assay. The cell concentration was adjusted; the cell suspension was added to a 96-well plate separately. Cells in 96-well plates were incubated overnight at 37° C., 5% CO2, and 95% humidity. To prepare the drug solution, 10 μL of drug solution was added to each well of the 96-well plate inoculated with cells, and three replicate wells were set up for each drug concentration. The cells in the 96-well plates added with drugs were placed at 37° C., 5% CO2, 95% humidity and continued to incubate for 72 hours, after which CTG analysis was performed and the cells were vibrated on an orbital shaker to lyse the cells. The cell plate was placed at room temperature to stabilize the cold light signal, and the cold light values were read. The data were analyzed using GraphPad Prism 7.0 software, and a nonlinear S-curve regression was used to fit the data to derive the dose-effect curve from which the IC50 values were calculated.
The IC50 of anti-proliferation activity against Ba/F3 Exon20 insertion mutant cells of the compounds of the present disclosure is shown in Table 5.
Ba/F3 exon 20 insertion mutant cells are cell lines with SVD, NPH, ASV, and YVMA insertion mutations artificially constructed using mouse B cells, and it can be seen from Table 5 that the compounds of the present disclosure have better cellular anti-proliferation activity against the […] exon 20 insertion mutations such as SVD, NPH, ASV, and YVMA, and also show better anti-proliferation activity against common exon 20 insertion mutations such as SVD mutation.

Assay [2] concerns non-small cell lung cancer with EGFR and HER2 exon 20 insertion mutation. As to conditions: clinical reports, NSCLC with EGFR and HER2 exon 20 insertion mutation; cited from earlier work.

Chain of Ba/F3 EGFR-D770_N771insSVD (P00533 with tags, fused parts or gaps DUP768-770): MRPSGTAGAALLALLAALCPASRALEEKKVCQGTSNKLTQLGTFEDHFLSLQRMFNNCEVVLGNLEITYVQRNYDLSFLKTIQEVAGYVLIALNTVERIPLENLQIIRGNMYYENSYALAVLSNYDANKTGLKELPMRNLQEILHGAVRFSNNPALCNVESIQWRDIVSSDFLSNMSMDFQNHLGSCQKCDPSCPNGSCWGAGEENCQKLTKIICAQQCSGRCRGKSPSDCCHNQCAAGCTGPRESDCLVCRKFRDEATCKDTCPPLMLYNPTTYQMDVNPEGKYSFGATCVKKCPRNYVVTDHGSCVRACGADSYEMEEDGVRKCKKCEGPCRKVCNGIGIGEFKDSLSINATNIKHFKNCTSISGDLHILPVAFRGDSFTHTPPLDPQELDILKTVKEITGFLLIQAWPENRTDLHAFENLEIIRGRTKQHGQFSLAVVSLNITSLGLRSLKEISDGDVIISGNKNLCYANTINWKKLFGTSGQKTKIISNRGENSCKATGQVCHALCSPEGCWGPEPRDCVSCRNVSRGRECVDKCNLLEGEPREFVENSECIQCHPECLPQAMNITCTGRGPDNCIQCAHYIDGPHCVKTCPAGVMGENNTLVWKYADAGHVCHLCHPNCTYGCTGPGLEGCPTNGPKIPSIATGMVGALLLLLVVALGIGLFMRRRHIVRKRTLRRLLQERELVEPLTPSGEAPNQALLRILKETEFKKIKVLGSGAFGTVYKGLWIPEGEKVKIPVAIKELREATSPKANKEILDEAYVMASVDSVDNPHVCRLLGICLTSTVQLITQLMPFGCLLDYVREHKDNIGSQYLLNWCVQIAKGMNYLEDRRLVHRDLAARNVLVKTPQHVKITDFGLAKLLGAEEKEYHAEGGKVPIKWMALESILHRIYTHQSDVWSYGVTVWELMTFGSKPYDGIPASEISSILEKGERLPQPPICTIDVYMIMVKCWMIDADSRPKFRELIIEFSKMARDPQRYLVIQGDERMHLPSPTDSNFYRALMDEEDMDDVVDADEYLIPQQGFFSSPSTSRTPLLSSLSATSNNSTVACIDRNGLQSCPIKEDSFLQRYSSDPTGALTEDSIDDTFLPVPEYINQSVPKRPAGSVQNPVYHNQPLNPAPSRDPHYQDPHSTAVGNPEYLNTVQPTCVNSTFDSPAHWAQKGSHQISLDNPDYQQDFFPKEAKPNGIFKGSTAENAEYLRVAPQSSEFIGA

For the compound `C=CC(=O)Nc1cc(Nc2ncc(C(=O)OC(C)C)c(-c3cn(OC)c4c(C5CC5)cccc34)n2)c(OC)cc1N(C)CCN(C)C` [Compound 5], the GI50 in assay [1] came out at 58 nM.

On to `C=CC(=O)Nc1cc(Nc2ncc(C(=O)OC(C)C)c(-c3cn(C)c4ccccc34)n2)c(OC)cc1N(C)CCN(C)C` [TAK788], for which, in assay [2], the disease control rate is recorded as 86% and the objective response rate is on record as 43%.

For `C=CC(=O)Nc1cc(Nc2ncc(C(=O)OC(C)C)c(-c3cn(OCC)c4ccccc34)n2)c(OC)cc1N(C)CCN(C)C` [Compound 2], in assay [1], the GI50 worked out at 27 nM.

Consider `C=CC(=O)Nc1cc(Nc2ncc(C(=O)OC(C)C)c(-c3cn(OC)c4c(Cl)cccc34)n2)c(OC)cc1N(C)CCN(C)C` [Compound 4], for which the GI50 in assay [1] was 33 nM. Still for that read-out and setting: for `C=CC(=O)Nc1cc(Nc2ncc(C(=O)OC(C)C)c(-c3cn(OC(C)C)c4ccccc34)n2)c(OC)cc1N(C)CCN(C)C` [Compound 3] the value was 54 nM.
